The text below walks through data of PubChem BioAssay AID588780 (Sanford-Burnham Center for Chemical Genomics, 2011).

Activity calls are given as the source filed them.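 Rule for the calls: active = compounds whose fitted half-maximal concentration in the cell-protection dose series is at or below a set limit; inactive = the rest.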 Where only a bound is given, the exact number is not on record here.

For this assay, the system named is H9c2 cardiomyocytes, 2-deoxyglucose stress, ATP luminescence, 2 h. The assay is described as follows: protection of cardiomyocytes from 2-deoxyglucose injury, dose response, cell-based, 2-deoxyglucose stress, uHTS hits (AID 588780).
What is called IC50 is the concentration that gives 50% inhibition. Take `O=C(COc1cccc2c1CCNC2=O)NC1CCCCC1`: the IC50 was > 79 µM (inactive).

Consider `CC(C)(C)c1ccc(OCCCC(=O)NNC(=O)c2ccccc2O)cc1`, for which the IC50 is > 79 µM (inactive).

On to `CC1CCN(CCCNC(=O)c2n[nH]c(=O)c3ccccc23)CC1`, for which the IC50 was > 79 µM (inactive).

As to `CC(C)=NNc1cnnc2ccc([N+](=O)[O-])cc12`, the IC50 is 12.2 µM.

Consider `COc1ccc2c(c1)C(=O)[C@@H](O)[C@H](c1ccc(OC)c(Br)c1)O2`, for which the IC50 is 5.76 µM.

As for `O=c1c2ccccc2nc(CSc2ncnc3nc[nH]c23)n1-c1ccc(Cl)c(Cl)c1`, the IC50 was > 79 µM (inactive).

As for `O=C(Nc1nc2ccccc2n1Cc1ccccc1)c1ccco1`, the IC50 was 14.7 µM.

As to `CC(=O)N1CCN(C(=O)CCc2nc3ccccc3c(=O)[nH]2)CC1`, the IC50 is > 79 µM (inactive).

For the molecule `COc1ccccc1C(=O)COC(=O)Cn1[nH]c(=O)c2ccccc2c1=O`, the IC50 is > 79 µM (inactive).

In the case of `NC(=O)c1cccc2c1C(=O)N(C1CCCCC1)C2`, the IC50 was > 79 µM (inactive).

On to `O=C1c2ccccc2NC(c2ccc(-c3ccc(Br)cc3)o2)N1O` (configuration not stated), for which the IC50 is 19 µM.

Regarding `CCc1nnc(NC(=O)CSc2nnc(CNc3ccc(OC)cc3)n2C)s1`, the IC50 was > 79 µM (inactive).

For `CCOC(=O)Cc1n[nH]c(=O)c2ccccc12`, the IC50 was > 79 µM (inactive).

In the case of `CCCN(CC(=O)Nc1ccccc1C)C(=O)Cc1n[nH]c(=O)c2ccccc12`, the IC50 was > 79 µM (inactive).

Turning to `COC(=O)c1cc2ccc(OC)cc2c2cc(OC)c(OC)cc12`, the IC50 was > 79 µM (inactive).

Take `CCc1cc(C(=O)Nc2nc(-c3ccccn3)cs2)sc1C`: the IC50 was > 79 µM (inactive).

`O=C1NC(=O)c2c(Br)c(Br)c(Br)c(Br)c21`: the IC50 is > 79 µM (inactive).

Take `CCOC(=O)CSc1nc2ccccc2c(=O)[nH]1`: the IC50 was > 79 µM (inactive).

For `Cc1cccc(NC(=O)c2nc[nH]c2C(=O)NCCCNC(=O)c2[nH]cnc2C(=O)Nc2cccc(C)c2)c1`, the IC50 is 31.6 µM (inactive).

Consider `COc1ccc(/C=N/NC(=O)c2ccc(COc3cccc4cccnc34)cc2)cc1OC`, for which the IC50 is > 79 µM (inactive).

As for `Cn1c(=O)n(CCc2ccccc2)c(=O)c2c1nc1n2CCN1Cc1ccco1`, the IC50 was 21.6 µM.

For `O=C(CCc1nc2ccccc2c(=O)[nH]1)OCCOc1ccc(Cl)cc1`, the IC50 was 31.3 µM (inactive).

Take `COc1ccc(N(C(=O)c2cccc([N+](=O)[O-])c2)S(=O)(=O)c2cccs2)cc1`: the half-maximal inhibitory concentration (IC50) was 13.4 µM.

Regarding `COC(=O)c1ccc(C(C(=O)NCc2ccccc2)N(Cc2cccs2)C(=O)c2cnccn2)cc1` (configuration not stated), the IC50 was 14.7 µM.

`COc1ccc2cc3cc(C(=O)Nc4cc(OC)c(OC)c(OC)c4)oc3nc2c1`: the IC50 was 27.5 µM.

On to `COc1ccc(CCn2c(Br)nc3c2c(=O)[nH]c(=O)n3C)cc1`, for which the IC50 is > 79 µM (inactive).

Consider `CC(C)CCN(C(=O)CNC(=O)c1ccco1)C(C(=O)NC1CCCCC1)c1ccco1` (configuration not stated), for which the IC50 was 37.5 µM (inactive).

For `Nc1c(C(=O)NC2CC2)c2nc3ccccc3nc2n1-c1ccc2c(c1)OCO2`, the IC50 was > 79 µM (inactive).

For the molecule `CN(C)CCCNc1ccc(-c2n[nH]c(=O)c3ccccc23)cc1[N+](=O)[O-]`, the IC50 was > 79 µM (inactive).

As to `COc1ccc(OCC(=O)NCc2n[nH]c(=O)c3ccccc23)cc1`, the IC50 is > 79 µM (inactive).

Take `Cn1c(=O)[nH]c(=O)c2c1nc(NCCc1ccccc1)n2CC(O)COc1ccccc1` (configuration not stated): the IC50 is > 79 µM (inactive).

As to `COC(=O)c1ccccc1NC(=O)/C=C/c1cc(OC)c(OC)c(OC)c1`, the IC50 was 22.9 µM.

Regarding `Cc1cc(C)c(C)c(S(=O)(=O)N2CCN(C(=O)c3cc(=O)[nH]c4ccccc34)CC2)c1C`, the IC50 is > 79 µM (inactive).

Regarding `O=C(Nc1cccc(/C=C/c2ccccn2)c1)c1ccc(-n2cncn2)cc1`, the IC50 was 42.9 µM (inactive).

Consider `COc1ccc(-c2cc(C(=O)N(C)Cc3ccc(OC)c(OC)c3OC)c3ccccc3n2)cc1OC`, for which the IC50 is 10.4 µM.

Consider `NNC(=O)c1cc2ccccc2cc1O`, for which the IC50 is > 79 µM (inactive).

As to `Cc1ccc(OCC(=O)N/N=C/c2cccc3cccnc23)cc1`, the IC50 was 35.8 µM (inactive).

Regarding `CCOC(=O)C1=C(COC(=O)c2cc(OC)c(OC)c(OC)c2)NC(=O)NC1C` (configuration not stated), the IC50 was 50 µM (inactive).

Regarding `COc1ccc(NC(=O)N(C)C[C@H]2Oc3c(NC(=O)Nc4ccc(C(F)(F)F)cc4)cccc3C(=O)N([C@H](C)CO)C[C@@H]2C)cc1`, the IC50 is > 79 µM (inactive).

`CNS(=O)(=O)c1ccc2nc(NC(=O)/C=C/c3ccco3)sc2c1`: the IC50 was > 79 µM (inactive).

As for `CCCNC(=O)c1ccc2c(=O)c(O)c(-c3ccc(C)cc3)[nH]c2c1`, the IC50 is > 79 µM (inactive).

Consider `COc1ccc(OC)c(Nc2nc(N)c([N+](=O)[O-])c(N3CCOCC3)n2)c1`, for which the IC50 is 20.9 µM.

In the case of `COc1ccc(CSc2nc3ccccc3c(=O)[nH]2)cc1F`, the IC50 was > 79 µM (inactive).

Regarding `CCc1ccc(NC(=O)CSc2ccc(-c3ccccn3)nn2)cc1`, the IC50 was > 79 µM (inactive).

Regarding `O=C(Nc1ccc(C(=O)N2CCOCC2)cc1)c1cnn2c(C(F)F)cc(-c3ccccc3)nc12`, the IC50 was > 79 µM (inactive).

With `O=C(Nc1ccccc1C(=O)Nc1ccccc1C(=O)NCc1ccco1)c1ccco1`, the IC50 is 8.02 µM.

In the case of `CC(Oc1ccccc1)C(=O)Nc1nc(-c2ccccn2)cs1` (configuration not stated), the IC50 is > 79 µM (inactive).

Turning to `O=C(NC1CCCCC1)C(c1ccc2ncccc2c1)N(Cc1ccccc1)C(=O)c1ccc2c(c1)OCCO2` (configuration not stated), the IC50 is 32 µM (inactive).

Turning to `CCN(CC)CCn1c(NC(=O)c2ccc(Cl)cc2)nc2ccccc21`, the IC50 was > 79 µM (inactive).

Turning to `Cc1c(Cl)cccc1NC(=O)CNC(=O)Cc1n[nH]c(=O)c2ccccc12`, the IC50 is > 79 µM (inactive).

Consider `O=C(COC(=O)Cn1[nH]c(=O)c2ccccc2c1=O)Nc1ncc(Cl)cc1Cl`, for which the IC50 is > 79 µM (inactive).

Turning to `Cn1c(=O)[nH]c(=O)c2c1nc(Br)n2CC(O)COc1ccc(Cl)cc1` (configuration not stated), the IC50 is 15.2 µM.

`CCN(CC)S(=O)(=O)c1cccc(C(=O)N/N=C/c2ccccn2)c1`: the IC50 is > 79 µM (inactive).

For the molecule `CCCCC(=O)Nc1cc(C)c2c(=O)oc3ccccc3c2n1`, the IC50 is > 79 µM (inactive).

On to `COc1ccc(-c2nc(NC(=O)c3ccc(OCC(=O)N4CCOCC4)c(OC)c3)sc2C)cc1`, for which the IC50 is > 79 µM (inactive).

For the molecule `O=c1cc(COc2ncnc3c(Cl)cc(Cl)cc23)nc2sccn12`, the IC50 was > 79 µM (inactive).

In the case of `CCN(CC)C(=O)CSc1nc2ccccc2c(=O)[nH]1`, the IC50 is > 79 µM (inactive).

In the case of `Cc1sc2nc(SCC(=O)N3CCOCC3)[nH]c(=O)c2c1C`, the IC50 was > 79 µM (inactive).

`O=C(Nc1cccc(N=Cc2cc(Cl)cc(Br)c2O)c1)c1ccco1`: the IC50 was 26.5 µM.

With `Cc1cnc(NC(=O)CSc2nc3ccccc3c(=O)[nH]2)s1`, the IC50 is > 79 µM (inactive).

With `CN(CC(=O)Nc1cccc(F)c1)C(=O)Cc1n[nH]c(=O)c2ccccc12`, the IC50 was > 79 µM (inactive).

On to `O=c1[nH]c2cccc(F)c2n2cccc12`, for which the IC50 was 8.05 µM.
